Measured values taken from patent US20160130278A1 (TAISHO PHARMACEUTICAL CO., LTD, priority 2013, published 2016).

What follows are compounds tested against T1, human type 1 glycine transporter (GlyT1) (Homo sapiens, UniProt P48067) (assay: Glycine uptake inhibition experiment ([3H]glycine uptake)). Conditions: GlyT1.
T1 construct: T98G cells (glioma cells) expressing human type 1 glycine transporter (GlyT1) were used
T1 sequence (P48067 1-706): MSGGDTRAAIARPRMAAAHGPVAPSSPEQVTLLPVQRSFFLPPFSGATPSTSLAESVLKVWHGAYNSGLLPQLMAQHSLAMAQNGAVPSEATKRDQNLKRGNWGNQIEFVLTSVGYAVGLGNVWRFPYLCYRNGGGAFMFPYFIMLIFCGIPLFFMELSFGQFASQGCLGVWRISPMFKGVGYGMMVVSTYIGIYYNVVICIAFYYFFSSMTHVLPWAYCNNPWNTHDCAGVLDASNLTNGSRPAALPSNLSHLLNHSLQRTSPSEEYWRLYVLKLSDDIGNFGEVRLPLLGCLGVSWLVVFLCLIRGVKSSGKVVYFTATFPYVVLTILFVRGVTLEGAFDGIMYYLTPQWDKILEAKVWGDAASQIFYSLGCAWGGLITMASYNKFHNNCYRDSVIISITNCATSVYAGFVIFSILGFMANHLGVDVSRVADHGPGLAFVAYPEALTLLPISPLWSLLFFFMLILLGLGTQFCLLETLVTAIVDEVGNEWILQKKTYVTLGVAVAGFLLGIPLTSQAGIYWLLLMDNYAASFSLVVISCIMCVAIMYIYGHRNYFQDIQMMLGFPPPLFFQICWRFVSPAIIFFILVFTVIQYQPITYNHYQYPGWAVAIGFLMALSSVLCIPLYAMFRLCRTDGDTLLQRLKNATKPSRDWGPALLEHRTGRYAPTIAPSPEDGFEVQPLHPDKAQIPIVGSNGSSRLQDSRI
Type: cell-based
Summary of the method: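 T98G glioma cells expressing human GlyT1 were pretreated 10 min with compound in HEPES buffer pH 7.4 (0.2% BSA), then incubated with compound plus 250 nM final [3H]glycine for 15 min at room temperature. Intracellular radioactivity was counted after NaOH lysis; 10 μM ALX5407 defined non-specific uptake. IC50 came from 10^−9–10^−5 M curves.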
An IC50 of 5600 nM was found for `CCn1cc(-c2cccc(C(NC(=O)c3c(Cl)ccc(C(F)(F)F)c3Cl)C3(O)CCC(F)(F)CC3)c2)cn1` (single isomer, unassigned) [Compound 221, 2,6-dichloro-N-{(4,4-difluoro-1-hydroxycyclohexyl)[3-(1-ethyl-1H-pyrazol-4-yl)phenyl]methyl}-3-(trifluoromethyl)benzamide] in this work. An IC50 of 8.5 nM was found for `CCn1cc(-c2cccc(C(NC(=O)c3nccc(C(F)(F)F)c3Cl)C3(O)CCCCC3)c2)cn1` (centres unmarked) [Compound 15, 3-chloro-N-{[3-(1-ethyl-1H-pyrazol-4-yl)phenyl](1-hydroxycyclohexyl)methyl}-4-(trifluoromethyl)pyridine-2-carboxamide] in this work. An IC50 of 2100 nM was found for `O=C(NC(c1cccc(F)c1Cl)[C@]1(O)CC[C@@H](F)CC1)c1nccc2ncccc12` (single isomer, unassigned) [Compound 256, N-[(2-chloro-3-fluorophenyl)(cis-4-fluoro-1-hydroxycyclohexyl)methyl]-1,6-naphthyridin-5-carboxamide] in this work. An IC50 of 220 nM was found for `O=C(NC(c1cccc(F)c1)C1(O)CCCC1)c1cccc(C(F)(F)F)c1Cl` (single isomer, unassigned) [Compound 73, 2-chloro-N-[(3-fluorophenyl)(1-hydroxycyclopentyl)methyl]-3-(trifluoromethyl)benzamide] in this work. An IC50 of 620 nM was found for `O=C(NC(c1cc(Cl)ccn1)C1(O)CCC(F)(F)CC1)c1ccc(C(F)(F)F)nc1Cl` (single isomer, unassigned) [Compound 350, 2-chloro-N-[(4-chloropyridin-2-yl)(4,4-difluoro-1-hydroxycyclohexyl)methyl]-6-(trifluoromethyl)pyridine-3-carboxamide] in this work. An IC50 of 6400 nM was found for `O=C(NC(c1cccc(F)c1Cl)[C@]1(O)CC[C@@H](F)CC1)c1ccc(Cl)cc1C(F)(F)F` (single isomer, unassigned) [Compound 313, 4-chloro-N-[(2-chloro-3-fluorophenyl)(cis-4-fluoro-1-hydroxycyclohexyl)methyl]-2-(trifluoromethyl)benzamide] in this work. An IC50 of 7100 nM was found for `O=C(NC(c1cccc(F)c1)C1(O)CCCC1)c1cccc(C(F)(F)F)c1Cl` (single isomer, unassigned) [Compound 72, 2-chloro-N-[(3-fluorophenyl)(1-hydroxycyclopentyl)methyl]-3-(trifluoromethyl)benzamide] in this work. An IC50 of 670 nM was found for `O=C(NC(c1cccc(Br)c1)C1(O)CCCC1)c1cccc(C(F)(F)F)c1Cl` (centres unmarked) [Compound 2, N-[(3-bromophenyl)(1-hydroxycyclopentyl)methyl]-2-chloro-3-(trifluoromethyl)benzamide] in this work. An IC50 of 4000 nM was found for `O=C(NC(c1ncccc1Cl)[C@]1(O)CC[C@@H](F)CC1)c1nccc(C(F)(F)F)c1Cl` (single isomer, unassigned) [Compound 303, 3-chloro-N-[(3-chloropyridin-2-yl)(cis-4-fluoro-1-hydroxycyclohexyl)methyl]-4-(trifluoromethyl)pyridine-2-carboxmaide] in this work. An IC50 of 1600 nM was found for `COc1cccc(C(=O)NC(c2cccc(F)c2Cl)[C@]2(O)CC[C@@H](F)CC2)c1Cl` (single isomer, unassigned) [Compound 289, 2-chloro-N-[(2-chloro-3-fluorophneyl)(cis-4-fluoro-1-hydroxycyclohexyl)methyl]-3-methoxybenzamide] in this work. An IC50 of 270 nM was found for `O=C(NC(c1cc(Cl)ccn1)[C@]1(O)CC[C@@H](F)CC1)c1ccc(C(F)(F)F)nc1Cl` (single isomer, unassigned) [Compound 335, 2-chloro-N-[(4-chloropyridin-2-yl)(cis-4-fluoro-1-hydroxycyclohexyl)methyl]-6-(trifluoromethyl)pyridine-3-carboxamide] in this work. An IC50 of 4700 nM was found for “3,4-dichloro-N-[(2-chloro-3-fluorophenyl)(cis-4-fluoro-1-hydroxycyclohexyl)methyl]benzamide [Compound 252]” in this work. An IC50 of 34 nM was found for `O=C(NC(c1cccc(-c2ccncc2)c1)C1(O)CCCC1)c1nccc(C(F)(F)F)c1Cl` (centres unmarked) [Compound 19, 3-chloro-N-{(1-hydroxycyclopentyl)[3-(pyridin-4-yl)phenyl]methyl}-4-(trifluoromethyl)pyridine-2-carboxamide] in this work. An IC50 of 840 nM was found for `CCn1cc(-c2cccc(C(NC(=O)c3cccc(C(F)(F)F)c3C)C3(O)CCC(F)(F)CC3)c2)cn1` (single isomer, unassigned) [Compound 150, N-{(4,4-difluoro-1-hydroxycyclohexyl)[3-(1-ethyl-1H-pyrazol-4-yl)phenyl]methyl}-2-methyl-3-(trifluoromethyl)benzamide] in this work. An IC50 of 120 nM was found for `O=C(NC(c1cccc(F)c1Cl)[C@]1(O)CC[C@@H](F)CC1)c1nccc2ccccc12` (single isomer, unassigned) [Compound 255, N-[(2-chloro-3-fluorophenyl)(cis-4-fluoro-1-hydroxycyclohexyl)methyl]isoquinoline-1-carboxamidea] in this work. An IC50 of 3400 nM was found for `O=C(NC(c1cccc(F)c1Cl)[C@]1(O)CC[C@@H](F)CC1)c1ccccc1OC(F)(F)F` (single isomer, unassigned) [Compound 282, N-[(2-chloro-3-flurophenyl)(cis-4-fluoro-1-hydroxycyclohexyl)methyl]-2-(trifluoromethoxy)benzamide] in this work. An IC50 of 110 nM was found for `O=C(NC(c1cccc(F)c1Cl)[C@]1(O)CC[C@@H](F)CC1)c1ncc(C(F)(F)F)cc1-n1nccn1` (single isomer, unassigned) [Compound 392, N-[(2-chloro-3-fluorophenyl)(cis-4-fluoro-1-hydroxycyclohexyl)methyl]-3-(2H-1,2,3-triazol-2-yl)-5-(trifluoromethyl)pyridine-2-carboxamide] in this work. An IC50 of 760 nM was found for `O=C(NC(c1ccc(F)cc1)C1(O)CCCC1)c1nccc(C(F)(F)F)c1Cl` (single isomer, unassigned) [Compound 58, 3-chloro-N-[(4-fluorophenyl)(1-hydroxycyclopentyl)methyl]-4-(trifluoromethyl)pyridine-2-carboxamide] in this work. An IC50 of 140 nM was found for `O=C(NC(c1cccc(F)n1)[C@]1(O)CC[C@@H](F)CC1)c1nccc(C(F)(F)F)c1Cl` (single isomer, unassigned) [Compound 329, 3-chloro-N-[(cis-4-fluoro-1-hydroxycyclohexyl)(6-fluoropyridin-2-yl)methyl]-4-(trifluoromethyl)pyridine-2-carboxamide] in this work. An IC50 of 1700 nM was found for `O=C(NC(c1cc(Cl)ccc1Cl)C1(O)CCCC1)c1nccc(C(F)(F)F)c1Cl` (single isomer, unassigned) [Compound 113, 3-chloro-N-[(2,5-dichlorophenyl)(1-hydroxycyclopentyl)methyl]-4-(trifluoromethyl)pyridine-2-carboxamide] in this work. An IC50 of 200 nM was found for `O=C(NC(c1cccnc1Cl)[C@]1(O)CC[C@@H](F)CC1)c1cc(C(F)(F)F)ncc1Cl` (single isomer, unassigned) [Compound 323, 5-chloro-N-[(2-chloropyridin-3-yl)(cis-4-fluoro-1-hydroxycyclohexyl)methyl]-2-(trifluoromethyl)pyridine-4-carboxamide] in this work. An IC50 of 380 nM was found for `O=C(NC(c1cnccc1Cl)[C@]1(O)CC[C@@H](F)CC1)c1nccc(C(F)(F)F)c1Cl` (single isomer, unassigned) [Compound 308, 3-chloro-N-[(4-chloropyridin-3-yl)(cis-4-fluoro-1-hydroxycyclohexyl)methyl]-4-(trifluoromethyl)pyridine-2-carboxamide] in this work. An IC50 of 760 nM was found for `CCn1cc(-c2cccc(C(NC(=O)c3cc(Cl)ccc3Cl)C3(O)CCC(F)(F)CC3)c2)cn1` (single isomer, unassigned) [Compound 194, 2,5-dichloro-N-{(4,4-difluoro-1-hydroxycyclohexyl)[3-(1-ethyl-1H-pyrazol-4-yl)phenyl]methyl}benzamide] in this work. An IC50 of 8700 nM was found for `CCn1cc(-c2cccc(C(NC(=O)c3ncc(Cl)cc3C(F)(F)F)C3(O)CCC(F)(F)CC3)c2)cn1` (centres unmarked) [Compound 206, 5-chloro-N-{(4,4-difluoro-1-hydroxycyclohexyl)[3-(1-ethyl-1H-pyrazol-4-yl)phenyl]methyl}-3-(trifluoromethyl)pyridine-2-carboxamide] in this work. An IC50 of 1100 nM was found for `CCn1cc(-c2cccc(C(NC(=O)c3cccc4ccccc34)C3(O)CCC(F)(F)CC3)c2)cn1` (single isomer, unassigned) [Compound 195, N-{(4,4-difluoro-1-hydroxycyclohexyl)[3-(1-ethyl-1H-pyrazol-4-yl)phenyl]methyl}naphthalene-1-carboxamide] in this work.

Same assay, conditions: human GlyT1
An IC50 of 1100 nM was found for `O=C(NC(c1ccccc1Cl)C1(O)CCC(F)(F)CC1)c1ccc(C(F)(F)F)nc1Cl` (single isomer, unassigned) [Compound 409, 2-chloro-N-[(2-chlorophenyl)(4,4-difluoro-1-hydroxycyclohexyl)methyl]-6-(trifluoromethyl)pyridine-3-carboxamide] in this work.
